Publication PMC11562385 (RSC Chemical Biology, 2024)
Like-named read-outs stand apart in the source and are kept apart here. Values belong to the compound of their own block, whether it stands above or below them. Square brackets hold non-standard residues; d marks the D form. Peptide text beside a SMILES is read from it. * marks the point of attachment. Dab = NCC[C@H](N)C(=O)O; Dap = NC[C@H](N)C(=O)O; Acryloyl = C=CC(=O)*

Experiments:
[1] = biological target: T1, PD1:PDL1 interaction (Homo sapiens, UniProt Q15116); assay: PD1/PDL1 immunoblocking ELISA (BPS Bioscience kit cat # 72005); type: binding
T1 construct: purchased BPS Bioscience 72005
T1 sequence (Q15116 25-167 limits assumed): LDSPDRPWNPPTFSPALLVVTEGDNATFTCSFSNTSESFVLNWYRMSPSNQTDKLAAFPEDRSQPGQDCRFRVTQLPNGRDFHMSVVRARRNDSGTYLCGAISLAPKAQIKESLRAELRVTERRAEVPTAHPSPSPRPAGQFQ
Procedure: Original loops with Phe/Trp and their Gly-derived analogs. Experimental EC50 values from inhibitory dose–response curves. Error bars indicate the mean ± SD, (n = 3). […]
SDS -Pages, buffers, and stain were purchased from Fisher
8. Immunoblocking ELISA Assay
Peptide inhibitor stock solutions were prepared in the concentration range of approximately 1-5 mM in DMSO. […]
plate was then washed and blocked with blocking buffer for 1 h at room temperature. Inhibitor solutions (ranging from 0.01 to 100 μM) and a blank solution (DMSO/PBS buffer) were added to designated wells. To initiate the […]
inhibitor solutions. After a 2 h incubation at room temperature, the plate was washed and blocked again for 10 min. Streptavidin-HRP (diluted at 1 : 1000) was added and incubated for 1 h at room temperature with gentle shaking. The plate was washed and blocked once more for 10 min. ELISA ECL substrate was added, and the resulting chemoluminescence was immediately measured in a luminometer (FLUOstar OPTIMA, BMG Labtech).
The luminescence value of the blank was subtracted from all readings according to the manufacturer's

[2] = Variable-temperature CD melting curves (CD-melts at 228±2 nm and 202±2 nm), individual and global two-state fits; type: physicochemical; parameters: DSo: unit not given here
Procedure: Recently, our laboratory brought forward a novel synthetic technology for the synthesis of acyclic β-hairpins with long loops. […] To compare hairpins’ stability, both regular (R) and bulged (B) scaffolds were crafted around a flexible 10-residue model loop (G4K2G4) and analyzed by CD (circular dichroism) spectroscopy (Fig. 2(A), see ESI, ^† Table S5). The […] structure of these model scaffolds 1avs.2a in solution were recorded in the far-UV CD spectra. […] The CD-exciton intensity was therefore used as a global probe to determine the %-folding of ADAPTins and to obtain melting curves corresponding to the hairpin fraying mechanism upon a gradual increase of temperature (0 to 95 °C).[68] […] In addition, NMR (nuclear magnetic resonance) chemical shifts were measured to determine variations in backbone […] structures (Fig. 2(B)). Secondary chemical shift deviations (CSDs) were calculated against random coil values[69] for both ADAPTin scaffolds 1vs.2 to verify that the hairpins were folded and if any variation of conformational rigidity exist within the loops. […]
Mass Spectrometer coupled to a Vanquish™ Neo UHPLC System (Thermo Scientific™). Peptide solutions for circular dichroism (CD) were prepared within a concentration range of 15-120 µM in a phosphate buffer (15 mM, […]
measured accurately using a JASCO V-670 spectrophotometer relied on the combined molar absorptivity of Trp (ε280 = 5580 M-1 .cm-1 per Trp) and Tyr (ε280 = 1280 M-1 .cm-1 per Tyr) to determine each sample's concentration.
CD spectra were recorded using a JASCO J-810 Spectropolarimeter equipped with a temperature controller module JASCO PFD-425S. Raw CD melting curves were processed in SpectraGryph, and fitting was performed in OriginPro 9.0 (Originlab Corporation, U.S.A.). NMR samples were prepared by reconstituting freeze -dried peptides (~ 1-5 mg) in mixture of water and DMSO -d6 (90:10 v/v) using 2,2-dimethyl-2-silapentane-5-sulfonate (DSS) as internal standard for chemical shifts (0 ppm), and spectra were recorded at 291 K (18 °C) unless otherwise stated. Chemical shifts ( δ) are reported in ppm. Samples for NMR experiments were prepared in a range of 3-10 mM of peptide in solution unless otherwise noted.

[3] = ELISA, mean of three independent experiments, read-out: EC50 Value

EC50 [1, 3]: 144 nM
SMILES: CC(C)C[C@H](NC(=O)[C@H](CCC(N)=O)NC(=O)[C@H](CCCNC(=N)N)NC(=O)[C@H](C)NC(=O)[C@@H](NC(=O)[C@H](Cc1c[nH]c2ccccc12)NC(=O)[C@@H](N)CCCNC(=N)N)C(C)C)C(=O)N[C@@H](Cc1ccc(O)cc1)C(=O)N[C@@H](Cc1ccc(O)cc1)C(=O)N[C@@H](Cc1ccccc1)C(=O)N[C@@H](CC(=O)O)C(=O)N[C@@H](Cc1ccc(O)cc1)C(=O)N[C@@H](Cc1c[nH]c2ccccc12)C(=O)N[C@H](C(=O)N[C@@H](Cc1c[nH]c2ccccc12)C(=O)N[C@@H](CCC(=O)O)C(=O)O)C(C)C [2m] (H-RWVARQLYYFDYWVWE-OH)

EC50 [1, 3]: 252 nM
SMILES: CSCC[C@H](NC(=O)CNC(=O)[C@H](CCC(=O)O)NC(=O)[C@H](CCCNC(=N)N)NC(=O)[C@H](C)NC(=O)[C@@H](NC(=O)[C@H](Cc1c[nH]c2ccccc12)NC(=O)[C@@H](N)CCCNC(=N)N)C(C)C)C(=O)N[C@@H](CC(N)=O)C(=O)N[C@H](C(=O)N[C@@H](CC(=O)O)C(=O)N[C@@H](Cc1c[nH]c2ccccc12)C(=O)N[C@@H](Cc1ccc(O)cc1)C(=O)N[C@@H](Cc1ccccc1)C(=O)N[C@@H](CC(=O)O)C(=O)N[C@@H](Cc1ccc(O)cc1)C(=O)N[C@@H](Cc1c[nH]c2ccccc12)C(=O)N[C@@H](Cc1cnc[nH]1)C(=O)N[C@@H](Cc1c[nH]c2ccccc12)C(=O)N[C@@H](CCC(=O)O)C(=O)O)[C@@H](C)O [2n] (H-RWVAREGMNTDWYFDYWHWE-OH)

EC50 [1, 3]: 230 nM
SMILES: CC[C@H](C)[C@H](NC(=O)[C@H](Cc1ccc(O)cc1)NC(=O)[C@H](Cc1c[nH]c2ccccc12)NC(=O)[C@H](Cc1ccc(O)cc1)NC(=O)[C@H](CC(N)=O)NC(=O)CNC(=O)[C@H](Cc1ccc(O)cc1)NC(=O)[C@H](C)NC(=O)[C@H](CCCNC(=N)N)NC(=O)[C@H](C)NC(=O)[C@@H](NC(=O)[C@H](Cc1c[nH]c2ccccc12)NC(=O)[C@@H](N)CCCNC(=N)N)C(C)C)C(=O)N[C@@H](CC(=O)O)C(=O)N[C@H](C(=O)N[C@@H](Cc1c[nH]c2ccccc12)C(=O)N[C@@H](Cc1cnc[nH]1)C(=O)N[C@@H](Cc1c[nH]c2ccccc12)C(=O)N[C@@H](CCC(=O)O)C(=O)O)C(C)C [2q] (H-RWVARAYGNYWYIDVWHWE-OH)

EC50 [1, 3]: 170 nM
SMILES: CC[C@H](C)[C@H](NC(=O)[C@H](Cc1ccc(O)cc1)NC(=O)CNC(=O)[C@H](Cc1ccc(O)cc1)NC(=O)[C@H](CC(N)=O)NC(=O)CNC(=O)[C@H](Cc1ccc(O)cc1)NC(=O)[C@H](C)NC(=O)[C@H](CCCNC(=N)N)NC(=O)[C@H](C)NC(=O)[C@@H](NC(=O)[C@H](Cc1c[nH]c2ccccc12)NC(=O)[C@@H](N)CCCNC(=N)N)C(C)C)C(=O)N[C@@H](CC(=O)O)C(=O)N[C@H](C(=O)N[C@@H](Cc1c[nH]c2ccccc12)C(=O)N[C@@H](Cc1cnc[nH]1)C(=O)N[C@@H](Cc1c[nH]c2ccccc12)C(=O)N[C@@H](CCC(=O)O)C(=O)O)C(C)C [2r] (H-RWVARAYGNYGYIDVWHWE-OH)

The next lines start with the compound.

SMILES: CSCC[C@H](NC(=O)[C@H](CC(=O)O)NC(=O)CNC(=O)[C@H](CCCNC(=N)N)NC(=O)[C@H](Cc1ccc(O)cc1)NC(=O)[C@H](CC(=O)O)NC(=O)[C@H](CCCNC(=N)N)NC(=O)[C@H](Cc1c[nH]c2ccccc12)NC(=O)[C@@H](NC(=O)[C@H](Cc1c[nH]c2ccccc12)NC(=O)[C@@H](N)CCCNC(=N)N)C(C)C)C(=O)NCC(=O)N[C@@H](Cc1ccccc1)C(=O)N[C@@H](CC(=O)O)C(=O)N[C@@H](Cc1c[nH]c2ccccc12)C(=O)N[C@H](C(=O)N[C@@H](Cc1c[nH]c2ccccc12)C(=O)N[C@@H](CCC(=O)O)C(=O)O)C(C)C [1b] (H-RWVWRDYRGDMGFDWVWE-OH)
EC50 [1, 3]: 7080 nM | LE (ligand efficiency) ([1]; LE = -RTln(EC50)/HA, HA = non-hydrogen atoms omitting the strap (RWV•••VWE)): 0.06 | EC50 ([1]; [PD1•PDL1] blocking EC50, Fig. 3B, cut-off bars of congeneric pairs (Phe/Trp vs Gly), n = 3): > 5000 nM | ΔGF0 ([2]; CD-melt at 228±2 nm, individual two-state Gibbs-Helmholtz fit (Origin 9.0), 0-95 °C, phosphate buffer 15 mM pH 6.5 ± MeOH): -0.64 ± 0.01 kcal/mol | DCp (fitted value) ([2]; CD-melt of 1b, c 3.4e-5 M, l 0.1 cm, two-state fit in OriginPro): -40.77 cal/(deg.mol) | DHm (fitted value) ([2]; CD-melt of 1b, c 3.4e-5 M, l 0.1 cm, two-state fit in OriginPro, enthalpy at Tm): -9.84462 kcal/mol | cF(18 oC), fraction folded ([2]; CD-melt of 1b, two-state fit in OriginPro, 18 °C): 81% | TDSo ([2]; CD-melt of 1b, two-state fit in OriginPro, standard-state entropic term): -8.2949 kcal/mol | DHo ([2]; CD-melt of 1b, two-state fit in OriginPro, standard-state folding enthalpy): -8.9431 kcal/mol | DSo ([2]; CD-melt of 1b, two-state fit in OriginPro, standard-state folding entropy): -27.84 | DGo ([2]; CD-melt of 1b, two-state fit in OriginPro, standard-state folding free energy): -0.6482 kcal/mol | Tm ([2]; CD-melt of 1b, two-state fit in OriginPro, the fitted Tm restated without a unit (apparently °C)): 47 °C | %fold 291K ([2]; CD-melt of 1b, two-state fit, 291 K): 81% | %fold 310K ([2]; CD-melt of 1b, two-state fit, 310 K): 62% | Tm (fitted value) ([2]; CD-melt of 1b, θ - θcoil(95) vs T 0-95 °C, c 3.4e-5 M, l 0.1 cm, two-state fit in OriginPro): 320.113 K | TM (°C) ([2]; Fig. 2, CD-melts of regular vs bulged scaffolds): 47 °C | Tm ([2]; Table S5, individual fit, 228±2 nm): 46.9 oC | Hairpin %-fold 291K ([2]; Table S5, individual fit, 291 K): 81 ± 1% | Hairpin %-fold 310K ([2]; Table S5, individual fit, 310 K): 62 ± 1% | -TΔSF0 ([2]; as E16): 8.29 ± 0.02 kcal/mol | ΔCpF0 ([2]; as E16): -41 ± 1 cal.deg-1.mol-1 | ΔHF0 ([2]; as E16): -8.94 ± 0.02 kcal/mol | ΔHm ([2]; as E16): -9.84 ± 0.01 kcal/mol | VT-CD %-fold ([2]; folded fraction (χF) at 25 °C from CD-melts, (R) regular / (B) bulged fold, phosphate buffer 15 mM pH 6.5, up to 20% MeOH): 81% (R) | VT-CD Tm (°C) ([2]; melting temperature from CD-melts, phosphate buffer 15 mM pH 6.5, up to 20% MeOH): 47 °C

SMILES: CSCC[C@H](NC(=O)CNC(=O)[C@H](CCC(=O)O)NC(=O)[C@H](CCCNC(=N)N)NC(=O)[C@H](C)NC(=O)[C@@H](NC(=O)[C@H](Cc1c[nH]c2ccccc12)NC(=O)[C@@H](N)CCCNC(=N)N)C(C)C)C(=O)N[C@@H](CC(N)=O)C(=O)N[C@H](C(=O)N[C@@H](CC(=O)O)C(=O)NCC(=O)N[C@@H](Cc1ccc(O)cc1)C(=O)N[C@@H](Cc1ccccc1)C(=O)N[C@@H](CC(=O)O)C(=O)N[C@@H](Cc1ccc(O)cc1)C(=O)N[C@@H](Cc1c[nH]c2ccccc12)C(=O)N[C@@H](Cc1cnc[nH]1)C(=O)N[C@@H](Cc1c[nH]c2ccccc12)C(=O)N[C@@H](CCC(=O)O)C(=O)O)[C@@H](C)O [2o] (H-RWVAREGMNTDGYFDYWHWE-OH)
EC50 [1]: 349 nM

SMILES: C=CC(=O)NCC[C@H](NC(=O)CNC(=O)[C@H](CC(=O)O)NC(=O)[C@@H](NC(=O)[C@H](CC(N)=O)NC(=O)[C@H](CCSC)NC(=O)CNC(=O)[C@H](CCC(=O)O)NC(=O)[C@H](CCCNC(=N)N)NC(=O)[C@H](C)NC(=O)[C@@H](NC(=O)[C@H](Cc1c[nH]c2ccccc12)NC(=O)[C@@H](N)CCCNC(=N)N)C(C)C)[C@@H](C)O)C(=O)N[C@@H](Cc1ccccc1)C(=O)N[C@@H](CC(N)=O)C(=O)N[C@@H](Cc1ccc(O)cc1)C(=O)N[C@@H](Cc1c[nH]c2ccccc12)C(=O)N[C@H](C(=O)N[C@@H](Cc1c[nH]c2ccccc12)C(=O)N[C@@H](CCC(=O)O)C(=O)O)C(C)C [2pa] (H-RWVAREGMNTDG[Dab](Acryloyl)FNYWVWE-OH)
EC50 [1, 3]: 950 nM

SMILES: C=CC(=O)NC[C@H](NC(=O)CNC(=O)[C@H](CC(=O)O)NC(=O)[C@@H](NC(=O)[C@H](CC(N)=O)NC(=O)[C@H](CCSC)NC(=O)CNC(=O)[C@H](CCC(=O)O)NC(=O)[C@H](CCCNC(=N)N)NC(=O)[C@H](C)NC(=O)[C@@H](NC(=O)[C@H](Cc1c[nH]c2ccccc12)NC(=O)[C@@H](N)CCCNC(=N)N)C(C)C)[C@@H](C)O)C(=O)N[C@@H](Cc1ccccc1)C(=O)N[C@@H](CC(N)=O)C(=O)N[C@@H](Cc1ccc(O)cc1)C(=O)N[C@@H](Cc1c[nH]c2ccccc12)C(=O)N[C@H](C(=O)N[C@@H](Cc1c[nH]c2ccccc12)C(=O)N[C@@H](CCC(=O)O)C(=O)O)C(C)C [2pb] (H-RWVAREGMNTDG[Dap](Acryloyl)FNYWVWE-OH)
EC50 [1, 3]: 3040 nM
